Data as given in ChEMBL document CHEMBL1145583, “2,5-Diaminopyrimidines and 3,5-disubstituted azapurines as inhibitors of glycogen synthase kinase-3 (GSK-3)” (Bioorg Med Chem Lett, 2008).

Legend:
[1] = biological target: T1, Glycogen synthase kinase-3 alpha (Homo sapiens, UniProt P49840); experiment: Inhibition of GSK3alpha
Target sequence in this assay (P49840 whole entry): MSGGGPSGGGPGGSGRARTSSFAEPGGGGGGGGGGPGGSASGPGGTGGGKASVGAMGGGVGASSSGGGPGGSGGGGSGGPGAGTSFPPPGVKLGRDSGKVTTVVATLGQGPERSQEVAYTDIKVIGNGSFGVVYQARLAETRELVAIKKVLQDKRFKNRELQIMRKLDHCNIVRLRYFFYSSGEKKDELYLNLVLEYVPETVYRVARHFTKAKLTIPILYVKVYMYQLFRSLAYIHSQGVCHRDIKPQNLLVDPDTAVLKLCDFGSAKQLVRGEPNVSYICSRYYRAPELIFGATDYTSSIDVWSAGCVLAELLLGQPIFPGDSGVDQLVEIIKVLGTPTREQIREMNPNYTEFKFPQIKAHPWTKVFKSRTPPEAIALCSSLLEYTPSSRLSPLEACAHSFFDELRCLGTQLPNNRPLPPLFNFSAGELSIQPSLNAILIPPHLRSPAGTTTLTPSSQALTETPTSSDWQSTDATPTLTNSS

[2] = biological target: T2, Glycogen synthase kinase-3 beta (Homo sapiens, UniProt P49841); experiment: Inhibition of GSK3-beta
Target sequence in this assay (P49841 whole entry): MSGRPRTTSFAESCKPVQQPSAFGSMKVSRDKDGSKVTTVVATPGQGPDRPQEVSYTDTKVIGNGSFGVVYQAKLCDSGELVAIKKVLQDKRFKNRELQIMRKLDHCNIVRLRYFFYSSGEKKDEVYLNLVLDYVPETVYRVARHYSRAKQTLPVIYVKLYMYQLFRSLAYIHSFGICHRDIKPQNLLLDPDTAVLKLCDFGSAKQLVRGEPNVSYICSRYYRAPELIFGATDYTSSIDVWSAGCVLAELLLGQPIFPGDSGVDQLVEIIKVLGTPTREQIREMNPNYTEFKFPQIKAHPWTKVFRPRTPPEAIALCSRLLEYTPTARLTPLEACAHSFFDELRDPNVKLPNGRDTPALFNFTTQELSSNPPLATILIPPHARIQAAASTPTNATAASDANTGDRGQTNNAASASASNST

Aurora kinase A = biological target: T3, Aurora kinase A (Homo sapiens, UniProt O14965); experiment: Inhibition of Aurora A
T3 sequence (O14965 whole entry): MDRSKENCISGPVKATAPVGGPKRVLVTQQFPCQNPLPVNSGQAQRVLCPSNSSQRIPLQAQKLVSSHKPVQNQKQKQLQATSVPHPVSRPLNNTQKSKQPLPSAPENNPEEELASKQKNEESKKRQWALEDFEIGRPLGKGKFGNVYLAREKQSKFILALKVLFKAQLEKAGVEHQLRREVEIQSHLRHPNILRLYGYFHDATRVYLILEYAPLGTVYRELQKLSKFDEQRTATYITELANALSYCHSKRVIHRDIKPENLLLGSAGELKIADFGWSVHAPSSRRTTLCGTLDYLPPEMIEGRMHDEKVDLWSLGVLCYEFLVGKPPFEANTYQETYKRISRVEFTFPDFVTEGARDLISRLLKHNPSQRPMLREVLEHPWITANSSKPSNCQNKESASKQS

[3] = biological target: T2, Glycogen synthase kinase-3 beta; experiment: Inhibition of GSK3-beta at 10 uM
Target sequence in this assay (P49841 whole entry, looked up): as the sequence (P49841 whole entry) above

[4] = biological target: T1, Glycogen synthase kinase-3 alpha; experiment: Inhibition of GSK3-alpha at 10 uM
Target sequence in this assay (P49840 2-483 limits assumed): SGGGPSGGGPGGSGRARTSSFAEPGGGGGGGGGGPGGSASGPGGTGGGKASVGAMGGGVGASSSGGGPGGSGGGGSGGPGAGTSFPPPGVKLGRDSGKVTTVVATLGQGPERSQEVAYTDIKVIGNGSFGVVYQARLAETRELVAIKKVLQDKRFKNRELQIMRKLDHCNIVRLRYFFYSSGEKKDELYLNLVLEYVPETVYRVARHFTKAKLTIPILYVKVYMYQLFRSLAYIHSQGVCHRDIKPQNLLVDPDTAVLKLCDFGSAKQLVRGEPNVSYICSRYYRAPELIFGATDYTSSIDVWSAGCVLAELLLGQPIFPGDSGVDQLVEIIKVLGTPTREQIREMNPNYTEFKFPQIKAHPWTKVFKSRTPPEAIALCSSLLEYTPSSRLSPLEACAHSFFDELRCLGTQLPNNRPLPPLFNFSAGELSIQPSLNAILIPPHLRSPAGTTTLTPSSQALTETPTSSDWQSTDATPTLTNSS

[5] = biological target: T4, Aurora kinase A (Homo sapiens) (UniProt O14965); experiment: Inhibition of Aurora A at 10 uM
T4 sequence (whole entry): T3 sequence (O14965 whole entry)

[6] = Oral bioavailability in rat at 20 mg/kg; assay type: ADME, organism-based; conditions: in vivo
[7] = Half life in rat at 5 mg/kg, iv; assay type: ADME, organism-based; design: dose 5 mg/kg, route intravenous; conditions: in vivo
[8] = Clearance in rat at 5 mg/kg, iv; assay type: ADME, organism-based; design: dose 5 mg/kg, route intravenous; conditions: in vivo
[9] = AUC in rat at 5 mg/kg, iv; assay type: ADME, organism-based; design: dose 5 mg/kg, route intravenous; conditions: plasma
[10] = Half life in rat at 20 mg/kg, po; assay type: ADME, organism-based; design: dose 20 mg/kg, route oral; conditions: in vivo
[11] = Tmax in rat at 20 mg/kg, po; assay type: ADME, organism-based; design: dose 20 mg/kg, route oral; conditions: in vivo
[12] = Volume of distribution at steady state in rat at 5 mg/kg, iv; assay type: ADME, organism-based; design: dose 5 mg/kg, route intravenous; conditions: in vivo, read-out: Vdss
[13] = AUC in rat at 20 mg/kg, po; assay type: ADME, organism-based; design: dose 20 mg/kg, route oral; conditions: plasma
[14] = Cmax in rat at 5 mg/kg, iv; assay type: ADME, organism-based; design: dose 5 mg/kg, route intravenous; conditions: in vivo
[15] = Cmax in rat at 20 mg/kg, po; assay type: ADME, organism-based; design: dose 20 mg/kg, route oral; conditions: in vivo

Row | Structure (SMILES) | IC50 [1] [nM] | IC50 [2] [nM] | other results
1 | O=C(O)c1ccc(Nc2ncc(-c3ccncc3)c(Nc3ccccc3)n2)cc1 | 1870 | 540 | –
2 | O=C1OC(Nc2ncc3nnn(-c4ccccc4)c3n2)c2ccccc21 (stereo not drawn) | 23 | 23 | IC50 (Aurora kinase A): 7300 nM
3 | Cn1c(=O)n(-c2ccccc2)c2nc(Nc3ccccc3)ncc21 | – | 1700 | inhibition [3]: 96%; inhibition [4]: 94%
4 | O=[N+]([O-])c1cnc(N[C@H]2CC[C@H](O)CC2)nc1Nc1ccccc1 | 172 | 281 | –
5 | O=C(O)c1ccc(Nc2ncc3[nH]c(=O)n(-c4ccccc4)c3n2)cc1 | – | 4000 | inhibition [3]: 88%; inhibition [4]: 93%
6 | O=C(O)c1cccc(Nc2ncc3[nH]c(=O)n(-c4ccccc4)c3n2)c1 | – | – | inhibition [3]: 3%; inhibition [4]: 1%
7 | O=C(O)c1ccc(Nc2ncc(C3C=NN=N3)c(Nc3ccccc3)n2)cc1 (stereo not drawn) | 2850 | 1170 | –
8 | O=C(O)COc1ccc(Nc2ncc3nnn(-c4ccccc4)c3n2)cc1 | 9 | 13 | IC50 (Aurora kinase A): 128 nM
9 | O=C(O)c1ccc(Nc2ncc3c(Cl)nn(-c4ccccc4)c3n2)cc1 | 350 | 180 | –
10 | c1ccc(Nc2ncc3nnn(-c4ccccc4)c3n2)cc1 | 330 | 628 | –
11 | OC12CC3CC(C1)CC(n1nnc4cnc(N[C@H]5CC[C@H](O)CC5)nc41)(C3)C2 | 444 | 744 | inhibition [5]: 23%
12 | OC12CC3CC(C1)CC(Nc1nc(N[C@H]4CC[C@H](O)CC4)ncc1Cl)(C3)C2 | 133 | 230 | inhibition [5]: 65%
13 | O=C(O)c1ccc(Nc2ncc(Br)c(Nc3ccccc3)n2)cc1 | – | 3200 | inhibition [4]: 82%
14 | O=c1n(-c2ccccc2)c2nc(Nc3ccccc3)ncc2n1C1CCCCC1 | – | – | inhibition [3]: 14%; inhibition [4]: 16%
15 | O=C1CN(c2ccccc2)c2nc(Nc3ccc(C(=O)O)cc3)ncc2N1 | 6700 | 3500 | –
16 | CCCCOC(=O)c1ccc(Nc2ncc3[nH]c(=O)n(-c4ccccc4)c3n2)cc1 | – | – | inhibition [3]: -5%; inhibition [4]: 6%
17 | OC12CC3CC(C1)CC(Nc1nc(N[C@H]4CC[C@H](O)CC4)ncc1F)(C3)C2 | 1500 | – | –
18 | O=C(O)c1ccc(Nc2ncc3nnn(C45CC6CC(CC(C6)C4)C5)c3n2)cc1 | 80 | 75 | IC50 (Aurora kinase A): 910 nM
19 | Cn1c(=O)c2cnc(Nc3ccc(C(=O)O)cc3)nc2n1-c1ccccc1 | 1020 | 960 | –
20 | O=C(O)COc1ccc(Nc2ncc3nnn(C45CC6CC(CC(O)(C6)C4)C5)c3n2)cc1 | 96 | 169 | –
21 | O=[N+]([O-])c1cnc(N[C@H]2CC[C@H](O)CC2)nc1NC12CC3CC(CC(O)(C3)C1)C2 | 123 | 198 | inhibition [5]: 33%
22 | CC(C)(C)n1c(=O)n(-c2ccccc2)c2nc(Nc3ccccc3)ncc21 | – | 2400 | inhibition [3]: 93%; inhibition [4]: 88%

Row | Structure (SMILES) | IC50 [1] [nM] | IC50 [2] [nM] | other results
23 | O=C(O)COc1ccc(Nc2ncc([N+](=O)[O-])c(Nc3ccccc3)n2)cc1 | 74 | 92 | IC50 (Aurora kinase A): 85 nM
24 | COC(=O)COc1ccc(Nc2ncc([N+](=O)[O-])c(Nc3ccccc3)n2)cc1 | – | – | inhibition [3]: 41%
25 | O=c1[nH]c2cnc(Nc3ccccc3)nc2n1-c1ccccc1 | – | – | inhibition [3]: 20%; inhibition [4]: -7%
26 | O=C(O)c1ccc(Nc2ncc(F)c(Nc3ccccc3)n2)cc1 | 3760 | 4170 | –
27 | O=C(O)/C=C\c1ccc(Nc2ncc3nnn(-c4ccccc4)c3n2)cc1 | 13 | 7 | IC50 (Aurora kinase A): 112 nM
28 | O=C(O)c1ccc(Nc2ncc([N+](=O)[O-])c(Nc3ccccc3)n2)cc1 | 270 | 150 | IC50 (Aurora kinase A): 346 nM
29 | CC(C)n1c(=O)n(-c2ccccc2)c2nc(Nc3ccccc3)ncc21 | – | 2900 | inhibition [3]: 71%
30 | O[C@H]1CC[C@H](Nc2ncc3nnn(-c4ccccc4)c3n2)CC1 | 123 | 279 | inhibition [5]: 25%
31 | O=C(O)c1ccc(Nc2ncc([N+](=O)[O-])c(NC34CC5CC(CC(C5)C3)C4)n2)cc1 | 34 | 26 | –
32 | COc1nn(-c2ccccc2)c2nc(Nc3ccc(C(=O)O)cc3)ncc12 | 1900 | 760 | –
33 | O=C(O)CCc1ccc(Nc2ncc3nnn(-c4ccccc4)c3n2)cc1 | 20 | 24 | IC50 (Aurora kinase A): 375 nM
34 | OC12CC3CC(C1)CC(Nc1nc(N[C@H]4CC[C@H](O)CC4)ncc1C(F)(F)F)(C3)C2 | 61 | 41 | bioavailability [6]: 34%; half-life [7]: 222 min; clearance [8]: 4.2 mL/min/kg; AUC [9]: 20100 ng·h/mL; half-life [10]: 366 min; Tmax [11]: 30 min; Vd [12]: 0.3 L/kg; AUC [13]: 27400 ng·h/mL; inhibition [5]: 45%; Cmax [14]: 24200 ng/mL; Cmax [15]: 5700 ng/mL
35 | COC(=O)COc1ccc(Nc2ncc3nnn(-c4ccccc4)c3n2)cc1 | 204 | 477 | –
36 | CCn1c(=O)n(-c2ccccc2)c2nc(Nc3ccccc3)ncc21 | – | > 10000 | inhibition [3]: 78%; inhibition [4]: 73%
37 | O=C(O)c1ccc(Nc2ncc3nnn(C45CC6CC(CC(O)(C6)C4)C5)c3n2)cc1 | 66 | 51 | –
38 | O=C(O)c1ccc(Nc2ncc(C(F)(F)F)c(Nc3ccccc3)n2)cc1 | 750 | 490 | –
39 | OC12CC3CC(C1)CC(Nc1nc(N[C@H]4CC[C@H](O)CC4)ncc1Br)(C3)C2 | 91 | 125 | inhibition [5]: 69%
40 | O=C(O)c1ccc(Nc2ncc([N+](=O)[O-])c(NC34CC5CC(CC(O)(C5)C3)C4)n2)cc1 | 4.5 | 3 | IC50 (Aurora kinase A): 156 nM
41 | O=C(O)CCc1ccc(Nc2ncc([N+](=O)[O-])c(NC34CC5CC(CC(C5)C3)C4)n2)cc1 | 38 | 105 | –
42 | O=[N+]([O-])c1cnc(Nc2ccccc2)nc1Nc1ccccc1 | – | 2800 | inhibition [4]: 52%
43 | O=C(O)c1ccc(Nc2ncc3nnn(-c4ccccc4)c3n2)cc1 | 32 | 49 | IC50 (Aurora kinase A): 292 nM
